Results on 10 molecules are retold here after patent publication US20250042896A1, “POLYCYCLIC COMPOUND AS CBL-B INHIBITOR” (HAINAN SIMCERE ZAIMING PHARMACEUTICAL CO., LTD., priority 2021, published 2025).

The subject of one test is Jurkat T cells. Nature of the test: Jurkat T activation assay (IL-2 release, ELISA). It counts as cell-based. The conditions noted are these: IL-2 release of Jurkat T cells, Anti-Human CD3/CD28 stimulation, 48 hours, IL-2 ELISA. As for the experimental part: Experiment purpose: Testing of effect of compounds on IL-2 release and activation of Jurkat T cells
Experimental method: 96-well cell plates (Corning) were coated with 2 μg/mL Anti-Human CD3 Clone OKT3 (BD) at 37° C. for 4 hours. 3-fold serial dilutions of compounds (final concentration 10 μM-4.6 nM, starting concentration 10 μM, 3-fold dilution, 8 points, 8th point being 4.6 nM) and 220 μL of 1.11×10^6/mL Jurkat T cells (ATCC) were incubated for 1 hour, 5 μL of 45 μg/mL Anti-Human CD28 Clone CD28.2 (BD) was added, mixed evenly, 100 μL was transferred to the aforementioned CD3-coated cell plate, cultured in a cell incubator at 37° C. for 48 hours, and the supernatant was collected and the IL-2 release was detected using an IL-2 ELISA kit (BD). EC50 was analyzed using Prism.
(In general: ELISA stands for enzyme-linked immunosorbent assay.)

Test [1] has as its target Cbl-b protein and UbcH5B-Ub (Homo sapiens (Human), UniProt Q13191). Nature of the test: Cbl-b activity assay (HTRF, interaction between Cbl-b protein and UbcH5B-Ub). Format: biochemical. Particulars: inhibition of interaction between Biotin-Cbl-b protein and Eu-Ubquitin-UbcH5B, HTRF signal 665 nm/615 nm. As for the experimental part:
Experiment purpose: Testing of inhibitory activity of compounds on the interaction between Cbl-b protein and UbcH5B-Ub
Experimental method: Eu-Ubquitin-UbcH5B was prepared by incubating Eu-Ubquitin (Cisbio) with UbcH5B (ENZO), E1 (ENZO) at 37° C. for 4 hours. Eu-Ubquitin-UbcH5B was aliquoted and stored at −80° C. Cbl-b activity assay was performed in 384-well plates (Perkin Elmer). 100 nL of 3-fold serial dilutions of compounds (final concentration 10 μM-0.5 nM, starting concentration 10 μM, 3-fold dilution, 10 points, 10th point being 0.5 nM) and 5 μL of 50 nM Biotin-Cbl-b protein (Sigma) were incubated for 1 hour at room temperature, and the reaction buffer was 50 mM HEPES pH 7.0 (Gibco), 100 mM NaCl (Sigma), 0.01% Triton X-100 (Sigma), 0.01% BSA (Sigma) and 1 mM DTT (Invitrogen). 5 μL of Src mixed solution (40 nM Src (R&D), 2 mM ATP (Sigma), 10 mM MgCl2 (Sigma)) was added to the reaction plate and incubated at room temperature for 3 hours. 10 μL of detection solution (12.5 nM Strepdividin-XL665 (Cisbio), 500 nM Eu-Ubquitin-UbcH5B, […] (Invitrogen), 0.004% BSA (Sigma)) was added to the reaction plate, incubated overnight at room temperature, and the HTRF signal (665 nm/615 nm) was read on Envision (Perkin Elmer). IC50 was calculated using IDBS XLfit.

Molecules are shown by their SMILES.

Cbl-b protein and UbcH5B-Ub, sequence (Q13191 whole entry, species assumed): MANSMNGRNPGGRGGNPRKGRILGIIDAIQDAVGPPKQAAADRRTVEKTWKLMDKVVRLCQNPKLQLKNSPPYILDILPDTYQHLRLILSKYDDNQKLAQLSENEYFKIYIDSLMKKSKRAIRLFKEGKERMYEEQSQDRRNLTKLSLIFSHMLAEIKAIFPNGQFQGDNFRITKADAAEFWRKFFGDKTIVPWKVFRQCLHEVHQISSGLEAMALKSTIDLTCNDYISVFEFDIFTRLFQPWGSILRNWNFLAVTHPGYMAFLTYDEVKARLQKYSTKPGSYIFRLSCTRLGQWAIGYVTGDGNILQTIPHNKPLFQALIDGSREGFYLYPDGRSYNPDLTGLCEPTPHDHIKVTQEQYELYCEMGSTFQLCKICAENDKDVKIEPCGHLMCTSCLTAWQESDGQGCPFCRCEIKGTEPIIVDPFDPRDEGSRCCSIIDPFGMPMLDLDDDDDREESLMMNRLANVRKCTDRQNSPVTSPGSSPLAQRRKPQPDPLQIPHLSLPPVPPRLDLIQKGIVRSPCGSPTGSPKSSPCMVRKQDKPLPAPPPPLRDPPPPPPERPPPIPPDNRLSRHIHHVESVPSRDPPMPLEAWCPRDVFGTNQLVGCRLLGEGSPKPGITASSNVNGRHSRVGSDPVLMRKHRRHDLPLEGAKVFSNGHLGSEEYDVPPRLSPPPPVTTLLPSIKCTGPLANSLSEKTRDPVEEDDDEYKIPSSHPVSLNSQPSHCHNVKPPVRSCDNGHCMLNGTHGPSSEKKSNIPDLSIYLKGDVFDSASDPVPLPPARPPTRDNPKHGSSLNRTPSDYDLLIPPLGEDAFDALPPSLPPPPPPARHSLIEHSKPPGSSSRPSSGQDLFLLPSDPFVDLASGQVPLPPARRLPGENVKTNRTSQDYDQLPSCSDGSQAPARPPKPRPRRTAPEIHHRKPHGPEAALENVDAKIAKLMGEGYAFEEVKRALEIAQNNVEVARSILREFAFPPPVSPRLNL

As usually defined, the EC50 is the concentration that produces a half-maximal response. A lower EC50 goes with a more potent agent. The term IC50 denotes the concentration that gives 50% inhibition. With `Cc1cc(CN2CCC[C@H](C)C2)cc2c(=O)c(-c3cncc(C4(c5nncn5C)CC(C)C4)c3)coc12` (stereo partly drawn) [Compound 65, (S)-8-methyl-3-(5-(3-methyl-1-(4-methyl-4H-1,2,4-triazol-3-yl)cyclobutyl)pyridin-3-yl)-6-((3-methylpiperidin-1-yl)methyl)-4H-chromen-4-one], a half-maximal response in the test with Jurkat T cells (EC50) required 0.265 µM. In addition, in test [1], 0.017 µM corresponded to half-maximal inhibition (IC50).

Consider `Cc1cc(CN2CCC[C@H](C)C2)cc2c(=O)c(-c3cccc(C4(c5nncn5C)CC(C)C4)c3)coc12` (stereo partly drawn) [Compound 58, (S)-8-methyl-3-(3-(3-methyl-1-(4-methyl-4H-1,2,4-triazol-3-yl)cyclobutyl)phenyl)-6-((3-methylpiperidin-1-yl)methyl)-4H-chromen-4-one], for which, in the test on Jurkat T cells, the response was half-maximal at 0.112 µM (EC50). The molecule also showed an IC50 in test [1] of 0.0097 µM.

`Cc1c(F)c(CN2CCC[C@H](C)C2)cc2c(=O)c(-c3cccc(C(c4nncn4C)C4CC4)c3)coc12` (stereo partly drawn) [Compound 124, 3-(3-(cyclopropyl(4-methyl-4H-1,2,4-triazol-3-yl)methyl)phenyl)-7-fluoro-8-methyl-6-(((S)-3-methylpiperidin-1-yl)methyl)-4H-chromen-4-one] displayed an EC50 in the test on Jurkat T cells of 0.383 µM. Also, the IC50 in test [1] was found to be 0.0197 µM.

Take `CC1CC(c2cccc(-c3cnc4c(C(F)(F)F)cc(CN5CCC[C@H](C)C5)cn4c3=O)c2)(c2nncn2C)C1` (stereo partly drawn) [Compound 2, 3-[3-[3-methyl-1-(4-methyl-4H-1,2,4-triazol-3-yl)cyclobutyl]phenyl]-7-[[(3S)-3-methyl-1-piperidyl]methyl]-9-(trifluoromethyl)pyrido[1,2-a]pyrimidin-4-one]: in the test on Jurkat T cells, the concentration giving a half-maximal response (EC50) is 0.634 µM. 0.0403 µM corresponded to half-maximal inhibition in test [1] (IC50).

For the molecule `Cc1cc(CN2CCC[C@H](C)C2)cc2c(=O)c(-c3cccc(C4(c5nncn5C)CC(F)C4)c3)coc12` (stereo partly drawn) [Compound 69, 3-(3-((1R,3S)-3-fluoro-1-(4-methyl-4H-1,2,4-triazol-3-yl)cyclobutyl)phenyl)-8-methyl-6-(((S)-3-methylpiperidin-1-yl)methyl)-4H-chromen-4-one], in the test on Jurkat T cells, a half-maximal response (EC50) required 0.552 µM. Also, 0.015 µM corresponded to half-maximal inhibition in test [1] (IC50).

Turning to `Cc1cc(CN2CCC[C@H](C)C2)cc2c(=O)c(-c3cccc(C(F)(c4nncn4C)C4CC4)c3)coc12` (some centres unmarked) [Compound 120], the EC50 in the test on Jurkat T cells was 0.688 µM. The same molecule displayed an IC50 in test [1] of 0.0175 µM.

On to `Cc1c(F)c(CN2CCC[C@H](C)C2)cc2c(=O)c(-c3cccc(C4(c5nncn5C)CC(C)C4)c3)coc12` (stereo in doubt) [Compound 121, 7-fluoro-8-methyl-3-(3-(cis-3-methyl-1-(4-methyl-4H-1,2,4-triazol-3-yl)cyclobutyl)phenyl)-6-(((s)-3-methylpiperidin-1-yl)methyl)-4H-chromen-4-one], for which the 50% effective concentration (EC50) with Jurkat T cells worked out at 0.251 µM. This molecule had an IC50 in test [1] of 0.0101 µM.

`Cc1cc(CN2CCC[C@H](C)C2)cc2c(=O)c(-c3cccc(C(F)(c4nncn4C)C(F)(F)F)c3)coc12` (stereo partly drawn) [Compound 128, 8-methyl-6-(((S)-3-methylpiperidin-1-yl)methyl)-3-(3-(1,2,2,2-tetrafluoro-1-(4-methyl-4H-1,2,4-triazol-3-yl)ethyl)phenyl)-4H-chromen-4-one] yielded a concentration giving a half-maximal response (EC50) with Jurkat T cells of 0.279 µM. The molecule also came in with a 50% inhibitory concentration (IC50) in test [1] of 0.0286 µM.

Take `CC(NC1(C)CCC1)c1cc(C(F)(F)F)c2ncc(-c3cccc([C@]4(c5nncn5C)C[C@@H](C)C4)c3)c(=O)n2c1` (stereo partly drawn) [Compound 126, 3-(3-(cis-3-methyl-1-(4-methyl-4H-1,2,4-triazol-3-yl)cyclobutyl)phenyl)-7-(1-((1-methylcyclobutyl)amino)ethyl)-9-(trifluoromethyl)-4H-pyrido[1,2-a]pyrimidin-4-one]: it took 0.0805 µM to reach a half-maximal effect with Jurkat T cells (EC50). Besides, half-maximal inhibition in test [1] (IC50) was put at 0.0111 µM.

Take `CC1CC(c2cccc(-c3cnc4c(C(F)(F)F)cc(CN5CC6CC(C)(C6)C5)cn4c3=O)c2)(c2nncn2C)C1` (centres unmarked) [Compound 62]: a half-maximal effect in the test with Jurkat T cells (EC50) was put at 0.525 µM. The same molecule returned a half-maximal inhibitory concentration (IC50) in test [1] of 0.0236 µM.
